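48-hour exposure; five concentrations; linearly interpolated endpoints. TGI: total growth inhibition.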
What was measured:
Assay in all cases: growth of human tumour cells (NCI), 48 h
IGROV1 ovarian = test system: IGROV1 ovarian
OVCAR-5 ovarian = test system: OVCAR-5 ovarian
SF-268 CNS = test system: SF-268 CNS
SNB-19 CNS = test system: SNB-19 CNS
UO-31 renal = test system: UO-31 renal
RPMI-8226 leukemia = test system: RPMI-8226 leukemia
M14 melanoma = test system: M14 melanoma
NCI/ADR-RES ovarian = test system: NCI/ADR-RES ovarian
NCI-H460 lung = test system: NCI-H460 lung
CCRF-CEM leukemia = test system: CCRF-CEM leukemia
COLO 205 colon = test system: COLO 205 colon
SW-620 colon = test system: SW-620 colon
T-47D breast = test system: T-47D breast
MDA-N = test system: MDA-N
TK-10 renal = test system: TK-10 renal
HCT-15 colon = test system: HCT-15 colon
MDA-MB-231 breast = test system: MDA-MB-231 breast
UACC-257 melanoma = test system: UACC-257 melanoma
ACHN renal = test system: ACHN renal
SK-MEL-5 melanoma = test system: SK-MEL-5 melanoma
KM12 colon = test system: KM12 colon
SK-MEL-2 melanoma = test system: SK-MEL-2 melanoma
A498 renal = test system: A498 renal
MOLT-4 leukemia = test system: MOLT-4 leukemia
HOP-62 NSCLC = test system: HOP-62 NSCLC
OVCAR-3 ovarian = test system: OVCAR-3 ovarian
OVCAR-4 ovarian = test system: OVCAR-4 ovarian
DU-145 prostate = test system: DU-145 prostate
HL-60(TB) leukemia = test system: HL-60(TB) leukemia
SR leukemia = test system: SR leukemia
UACC-62 melanoma = test system: UACC-62 melanoma
SN12C renal = test system: SN12C renal
HS 578T breast = test system: HS 578T breast
LOX IMVI melanoma = test system: LOX IMVI melanoma
EKVX NSCLC = test system: EKVX NSCLC
HCT-116 colon = test system: HCT-116 colon
PC-3 prostate = test system: PC-3 prostate
HT29 colon = test system: HT29 colon
NCI-H226 lung = test system: NCI-H226 lung
786-0 renal = test system: 786-0 renal
OVCAR-8 ovarian = test system: OVCAR-8 ovarian
U251 CNS = test system: U251 CNS
NCI-H522 lung = test system: NCI-H522 lung
HOP-92 NSCLC = test system: HOP-92 NSCLC
CAKI-1 renal = test system: CAKI-1 renal
BT-549 breast = test system: BT-549 breast
MDA-MB-435 = test system: MDA-MB-435
NCI-H23 lung = test system: NCI-H23 lung
HCC-2998 colon = test system: HCC-2998 colon
SNB-75 CNS = test system: SNB-75 CNS
K-562 leukemia = test system: K-562 leukemia
MALME-3M melanoma = test system: MALME-3M melanoma
SK-MEL-28 melanoma = test system: SK-MEL-28 melanoma
RXF 393 renal = test system: RXF 393 renal
SK-OV-3 ovarian = test system: SK-OV-3 ovarian
SF-539 CNS = test system: SF-539 CNS
MCF7 breast = test system: MCF7 breast
SF-295 CNS = test system: SF-295 CNS
A549 NSCLC = test system: A549 NSCLC

O=c1[nH]c(NCCCCCO)nc2nc[nH]c12
TGI (IGROV1 ovarian): > 100 µM | TGI (OVCAR-5 ovarian): > 100 µM | TGI (SF-268 CNS): > 100 µM | TGI (SNB-19 CNS): > 100 µM | TGI (UO-31 renal): > 100 µM | TGI (RPMI-8226 leukemia): > 100 µM | TGI (M14 melanoma): > 100 µM | TGI (NCI/ADR-RES ovarian): > 100 µM | TGI (NCI-H460 lung): > 100 µM | TGI (CCRF-CEM leukemia): > 100 µM | TGI (COLO 205 colon): > 100 µM | TGI (SW-620 colon): > 100 µM | TGI (T-47D breast): > 100 µM | TGI (MDA-N): > 100 µM | TGI (TK-10 renal): > 100 µM | TGI (HCT-15 colon): > 100 µM | TGI (MDA-MB-231 breast): > 100 µM | TGI (UACC-257 melanoma): > 100 µM | TGI (ACHN renal): > 100 µM | TGI (SK-MEL-5 melanoma): > 100 µM | TGI (KM12 colon): > 100 µM | TGI (SK-MEL-2 melanoma): > 100 µM | TGI (A498 renal): > 100 µM | TGI (MOLT-4 leukemia): > 100 µM | TGI (HOP-62 NSCLC): > 100 µM | TGI (OVCAR-3 ovarian): > 100 µM | TGI (OVCAR-4 ovarian): > 100 µM | TGI (DU-145 prostate): > 100 µM | TGI (HL-60(TB) leukemia): > 100 µM | TGI (SR leukemia): > 100 µM | TGI (UACC-62 melanoma): > 100 µM | TGI (SN12C renal): > 100 µM | TGI (HS 578T breast): > 100 µM | TGI (LOX IMVI melanoma): > 100 µM | TGI (EKVX NSCLC): > 100 µM | TGI (HCT-116 colon): > 100 µM | TGI (PC-3 prostate): > 100 µM | TGI (HT29 colon): > 100 µM | TGI (NCI-H226 lung): > 100 µM | TGI (786-0 renal): > 100 µM | TGI (OVCAR-8 ovarian): > 100 µM | TGI (U251 CNS): > 100 µM | TGI (NCI-H522 lung): > 100 µM | TGI (HOP-92 NSCLC): > 100 µM | TGI (CAKI-1 renal): > 100 µM | TGI (BT-549 breast): > 100 µM | TGI (MDA-MB-435): > 100 µM | TGI (NCI-H23 lung): > 100 µM | TGI (HCC-2998 colon): > 100 µM | TGI (SNB-75 CNS): > 100 µM | TGI (K-562 leukemia): > 100 µM | TGI (MALME-3M melanoma): > 100 µM

O=C(c1ccccc1)C1C(c2ccccc2[N+](=O)[O-])N1C1CCCCC1 (configuration not stated)
TGI (IGROV1 ovarian): 17.4 µM | TGI (OVCAR-5 ovarian): 36.9 µM | TGI (SF-268 CNS): 38.3 µM | TGI (SNB-19 CNS): 32.3 µM | TGI (UO-31 renal): 20.3 µM | TGI (RPMI-8226 leukemia): 4.68 µM | TGI (M14 melanoma): 23.9 µM | TGI (NCI/ADR-RES ovarian): > 85.2 µM | TGI (NCI-H460 lung): 24.8 µM | TGI (SK-MEL-28 melanoma): > 57.7 µM | TGI (COLO 205 colon): 20.4 µM | TGI (SW-620 colon): > 26.6 µM | TGI (T-47D breast): 7.57 µM | TGI (MDA-N): 19.7 µM | TGI (TK-10 renal): 7.4 µM | TGI (HCT-15 colon): 23 µM | TGI (MDA-MB-231 breast): 23 µM | TGI (RXF 393 renal): 17 µM | TGI (UACC-257 melanoma): 8.88 µM | TGI (ACHN renal): 3.74 µM | TGI (SK-MEL-5 melanoma): 24.4 µM | TGI (KM12 colon): 25.2 µM | TGI (SK-MEL-2 melanoma): 18.6 µM | TGI (A498 renal): 30.5 µM | TGI (MOLT-4 leukemia): 7.79 µM | TGI (HOP-62 NSCLC): 34.1 µM | TGI (OVCAR-3 ovarian): 7.82 µM | TGI (OVCAR-4 ovarian): 22.7 µM | TGI (SK-OV-3 ovarian): > 60.9 µM | TGI (DU-145 prostate): 22.6 µM | TGI (UACC-62 melanoma): 20.6 µM | TGI (SN12C renal): 15.6 µM | TGI (HS 578T breast): 49.3 µM | TGI (LOX IMVI melanoma): 5.18 µM | TGI (SF-539 CNS): 4.77 µM | TGI (EKVX NSCLC): 30.8 µM | TGI (HCT-116 colon): 8.6 µM | TGI (PC-3 prostate): 15.9 µM | TGI (HT29 colon): 16.4 µM | TGI (NCI-H226 lung): 34 µM | TGI (786-0 renal): 5.05 µM | TGI (OVCAR-8 ovarian): 3.97 µM | TGI (MCF7 breast): 15.9 µM | TGI (SF-295 CNS): 35.3 µM | TGI (U251 CNS): 18.5 µM | TGI (NCI-H522 lung): 5.9 µM | TGI (HOP-92 NSCLC): 16.2 µM | TGI (CAKI-1 renal): 9.5 µM | TGI (BT-549 breast): 32.3 µM | TGI (A549 NSCLC): 44.2 µM | TGI (MDA-MB-435): 10.8 µM | TGI (NCI-H23 lung): 37.4 µM | TGI (HCC-2998 colon): 18 µM | TGI (K-562 leukemia): 8.06 µM | TGI (MALME-3M melanoma): 29.4 µM
